{"source": "patent US20260125440A1", "about": "“INCRETIN ANALOGS AND USES THEREOF” (ELI LILLY AND COMPANY, priority 2019, published 2026)", "key": {"[1]": {"test": "Weight loss, metabolism and body composition in DIO C57/B16 mice", "assay_type": "in vivo", "procedure": "Methods: To investigate the effects of the Example compounds on parameters such as weight loss, metabolism and body composition, the Example compounds are dosed to C57B16 DIO mice. These animals, although not diabetic, display insulin resistance and dyslipidemia, all characteristics of metabolic syndrome, after being placed on a high fat diet for 20 weeks.\nHere, DIO male C57/B16 mice at 20 weeks old are maintained on a calorie-rich diet are used in the following studies. […] After a 3-week acclimation to the facility, which includes 1 week of vehicle acclimation dosing, the mice are randomized according to their body weight, so each experimental group of animals would have similar body weight.\nAll groups contain 6 mice. […] Body weight and food intake are measured daily throughout the study, including 1 day after last dose (Day 15).\nAbsolute changes in body weight are calculated by subtracting the body weight of the same animal prior to the first injection of molecule. On Days 0 and 15, total fat mass is measured by nuclear magnetic resonance (NMR) using an Echo Medical System (Houston, TX) instrument. On Day 15, metabolic parameters are measured using Accu-Chek® Aviva® Glucometers (Roche; Indianapolis, IN) or a Hitachi clinical blood analyzer (Roche, Indianapolis, IN). Plasma insulin is determined using an electrochemiluminescence assay (Meso Scale Discovery, Rockville, MD).\nData are presented as mean±t SEM of 6animals per group in Tables 7 and 8 below. Statistical analysis is performed using repeated measures ANOVA, followed by Dunneti's method for multiple comparisons. Significant differences are identified as * with p<0.05."}, "[2]": {"test": "Insulin secretion during ivGTT in male Wistar rats", "assay_type": "in vivo", "conditions": "Sema: semaglutide 10 nmol/kg positive control, one per run of each Example compound", "procedure": "Methods: An intravenous glucose tolerance test (ivGTT) in Male Wistar rats is used to estimate insulinotropic potency of the Example compounds. A GLP-1R agonist, semaglutide, is used as a positive control. […] Semaglutide is used as positive control in connection with each run of Example compounds ([…] dose).\nA time 0 blood sample is collected into EDTA tubes after which glucose is administered ([…], 5 mL/kg). Blood samples are collected for glucose and insulin levels at time 2, 4, 6, 10, 20 and 30 min post intravenous administration of glucose. Plasma insulin is determined using an electrochemiluminescence assay (Meso Scale; Rockville, MD).\nStatistical analysis is performed using JMP with a one-way ANOVA followed by Dunnett's comparison to the vehicle control."}, "[3]": {"conditions": "10 nmol/kg SQ daily, day 15 difference vs vehicle, DIO mice"}}, "note": "Values joined by “and” are separate entries in the source; they are usually repeats but may differ in a detail not shown here. Equal entries are not always repeated. Marks after values point to notes of the source that are not given here."}
{"substance": "semaglutide", "values": [{"measurement": "Δ Body Weight (g)", "setting": "[1]; 10 nmol/kg SQ daily 14 days, day 15, difference vs vehicle, DIO mice", "result": "−9.23 ± 0.58* g"}, {"measurement": "Δ Cholesterol", "setting": "[1]; [3]", "result": "−73.33 ± 4.17* mg/dL"}, {"measurement": "Δ Glucose", "setting": "[1]; [3]", "result": "-18.33 ± 2.81", "unit": "mg/dL"}, {"measurement": "Δ Insulin", "setting": "[1]; [3]", "result": "-4.15 ± 2.23", "unit": "ng/mL"}, {"measurement": "Δ Trigs", "setting": "[1]; [3]", "result": "16.00 ± 0.38", "unit": "mg/dL"}, {"measurement": "Fat Mass (%)", "setting": "[1]; 10 nmol/kg SQ daily, difference in fat mass between days 0 and 15 (NMR), DIO mice", "result": "−15.14 ± 1.93* %"}, {"measurement": "Δ Body Weight (%)", "setting": "[1]; 10 nmol/kg SQ daily, percent decrease between days 1 and 15, DIO mice", "result": "−21.98 ± 2.58* %"}, {"measurement": "AUC30 min of Insulin After Bolus IV Glucose", "setting": "[2]", "result": "76.4 and 76.6 and 80.9"}]}
